Experimental findings from PMC9658223, “New, Eco-Friendly Method for Synthesis of 3-Chlorophenyl and 1,1′-Biphenyl Piperazinylhexyl Trazodone Analogues with Dual 5-HT1A/5-HT7 Affinity and Its Antidepressant-like Activity” (Molecules, 2022) are described below.

Molecules are shown by their SMILES. Structures can show the parent of a compound that is named as a salt.

The target in one data set is T1, 5-HT7 receptor (Homo sapiens, UniProt P34969).
T1 construct: gene HTR7; 5-HT7bR
Description: LANCE Ultra cAMP assay, inhibition of 5-CT-induced cAMP in HEK-293 cells overexpressing 5-HT7bR. The class given is cell-based. From the text:
LANCE Ultra cAMP assay, inhibition of 5-CT-induced cAMP in HEK-293 cells overexpressing 5-HT7bR on 5-HT7 receptor | Both behaved as 5-HT7R antagonists | Both behaved as 5-HT7R antagonists, while 7b·HCl additionally acted as a 5-HT1AR antagonist in a cAMP assay.

The next data set addresses T2, 5-HT1A receptor (Homo sapiens, UniProt P08908).
T2 construct: gene HTR1A
T2 sequence (P08908 1-422): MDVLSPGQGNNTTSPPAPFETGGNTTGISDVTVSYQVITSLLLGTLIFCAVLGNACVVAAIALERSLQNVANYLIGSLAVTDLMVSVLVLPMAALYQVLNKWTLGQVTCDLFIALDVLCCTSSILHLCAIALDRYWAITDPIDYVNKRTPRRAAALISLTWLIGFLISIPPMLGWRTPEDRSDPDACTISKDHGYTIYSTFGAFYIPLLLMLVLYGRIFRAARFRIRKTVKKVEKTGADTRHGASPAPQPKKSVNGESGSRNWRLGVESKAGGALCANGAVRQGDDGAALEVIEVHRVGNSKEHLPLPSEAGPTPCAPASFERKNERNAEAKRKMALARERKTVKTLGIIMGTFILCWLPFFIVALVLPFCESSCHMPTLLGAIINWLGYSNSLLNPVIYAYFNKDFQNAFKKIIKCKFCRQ
Description: LANCE Ultra cAMP functional antagonist assay in HEK293 cells. In kind it is cell-based. The source says: LANCE Ultra cAMP functional antagonist assay in HEK293 cells on 5-HT1A receptor | 7b·HCl additionally acted as a 5-HT1AR antagonist in a cAMP assay
(In general: In TR-FRET formats the signal depends on donor and acceptor labels being close together.)

A further data set has as its target CYP3A4 (Homo sapiens, UniProt P08684). The experiment in a line: CYP3A4 P450-Glo luminescence assay (Promega), single concentration […]. In kind it is biochemical.

T1 sequence (P34969 1-432): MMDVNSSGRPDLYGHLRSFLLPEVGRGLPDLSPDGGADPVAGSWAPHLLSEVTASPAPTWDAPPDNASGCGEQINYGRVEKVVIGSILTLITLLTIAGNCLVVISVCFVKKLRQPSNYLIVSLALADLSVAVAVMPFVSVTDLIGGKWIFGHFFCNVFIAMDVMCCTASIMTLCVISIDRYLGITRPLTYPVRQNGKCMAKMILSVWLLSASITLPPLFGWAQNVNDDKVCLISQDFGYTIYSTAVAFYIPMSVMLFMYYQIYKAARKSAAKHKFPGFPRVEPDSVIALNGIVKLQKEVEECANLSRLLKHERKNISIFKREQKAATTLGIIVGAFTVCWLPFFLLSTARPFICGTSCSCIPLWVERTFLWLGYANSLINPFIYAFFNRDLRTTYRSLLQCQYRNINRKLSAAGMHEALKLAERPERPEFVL
CYP3A4, sequence (P08684 2-503): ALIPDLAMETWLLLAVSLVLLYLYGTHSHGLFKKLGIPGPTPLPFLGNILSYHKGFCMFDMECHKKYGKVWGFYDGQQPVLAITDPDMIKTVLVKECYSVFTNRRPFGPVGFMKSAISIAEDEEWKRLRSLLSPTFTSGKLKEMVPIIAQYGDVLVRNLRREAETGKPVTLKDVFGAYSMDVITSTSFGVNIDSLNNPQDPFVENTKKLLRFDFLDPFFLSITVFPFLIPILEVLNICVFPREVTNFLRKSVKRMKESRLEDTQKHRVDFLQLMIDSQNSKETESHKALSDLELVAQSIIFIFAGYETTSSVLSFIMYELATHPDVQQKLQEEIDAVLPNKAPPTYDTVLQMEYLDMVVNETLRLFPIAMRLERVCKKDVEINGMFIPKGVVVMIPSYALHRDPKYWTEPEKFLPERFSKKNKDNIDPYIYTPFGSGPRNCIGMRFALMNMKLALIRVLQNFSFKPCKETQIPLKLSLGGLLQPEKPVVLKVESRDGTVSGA

On to `O=c1n(CCCCCCN2CCN(c3ccccc3-c3ccccc3)CC2)nc2ccccn12` [7b·HCl, 2-(6-(4-([1,1′-biphenyl]-2-yl)piperazin-1-yl)hexyl)-[1,2,4]triazolo[4,3-a]pyridin-3(2H)-one hydrochloride], for which the figures for the Kb on 5-HT7 receptor and on 5-HT1A receptor were 18 nM and 12 nM, respectively. The inhibition – broadly, the relative decrease from the control value, in per cent – at 10 µM against CYP3A4 was 35%.
Take `O=c1n(CCCCCCN2CCN(c3cccc(Cl)c3)CC2)nc2ccccn12` [7a·HCl, 2-(6-(4-(3-chlorophenyl)piperazin-1-yl)hexyl)-[1,2,4]triazolo[4,3-a]pyridin-3(2H)-one hydrochloride]: the Kb at 5-HT7 receptor is 87 nM.
